The target in one assay is GDP-KRASG12C::SOS1 (Homo sapiens, UniProt P01116, C118S/C51S/C80L/G12C). Kind of assay: Alpha Screen PPI assay. The assay is classed as biochemical. The following applies: for IC50: Alpha Screen, duplicate. The protocol: 221 Measurements of various protein–protein interactions were performed using the Alpha
222 Screen technology developed by Perkin Elmer. Recombinant RAS proteins (H-, N-, K-
223 RAS variants; all KRAS variants are based on KRAS isoform 4B (uniprot id P01116-2);
224 KRAS (G12D) 1-169, N-terminal 6His-tag, C-terminal avi-tag was from Xtal
225 BioStructures, Inc., KRAS (G12C) 1-169, C-terminal avi-tag, biotinylated, mutations:
226 C51S, C80L, C118S, NRAS(wt) 1-172, C-terminal avi-tag, biotinylated; HRAS(wt) 1-
227 166, C-terminal avi-tag, biotinylated). Biotinylation was performed in vitro with
228 recombinant BirA biotin-protein ligase as recommended by the manufacturer (Avidity
229 LLC, Aurora, Colorado, USA). Interacting proteins such as SOS1 (564-1049, N-terminal
230 GST-tag, TEV cleavage site), cRaf (1-303, N-terminal GST-tag, TEV cleavage site) and
231 PI3KA- RBD (160-317, N-term-HIS_GST-tag) were expressed as glutathione S
232 transferase (GST) fusions. Accordingly, the Alpha Screen beads were glutathione coated
233 Alpha Lisa acceptor beads (Perkin Elmer AL 109 R) and Alpha Screen Streptavidin
234 conjugated donor beads (Perkin Elmer 6760002L). Nucleotides were purchased from
236 interaction assays were carried out in PBS, containing 0.1% bovine serum albumin,
237 0,05% Tween-20 and 10 µM of the corresponding nucleotide. Assays were carried out in
238 white ProxiPlate-384 Plus plates (Perkin Elmer #6008280) in a final volume of 20 µL. In
239 brief, biotinylated RAS proteins (10 nM final concentration) and GST-SOS1, GST-PI3K
240 or GST-CRAF (10 nM final) were mixed with glutathione acceptor beads (5 µg/mL final
241 concentration) in buffer, containing the corresponding nucleotides (GDP or GTP for
242 assays containing SOS1, only GTP for interaction assays containing PI3K or CRAF) and
243 were incubated for 30 min at room temperature. After addition of streptavidin donor
244 beads (5 µg/mL final concentration) under green light, the mixture was further incubated
245 for 60 min in the dark at room temperature. Single oxygen induced fluorescence was
246 measured at an Enspire multimode plate reader (Perkin Elmer) according to the
247 manufacturer’s recommendations. […]

The subject of assay [1] is NCI-H358 cells. Description: pERK quantification (Meso Scale Discovery). Format: cell-based, human. The protocol: Active RAS signals through RAF and MEK to induce phosphorylation of ERK (phospho-ERK). Phospho-ERK levels were quantified using a plate-based electrochemiluminescent assay (MESO SCALE DISCOVERY). […]
252 (175 cm2) using RPMI medium supplemented with 10% fetal bovine serum. Cultures
253 were incubated at 37 °C and 5% CO2 in a humidified atmosphere, with medium change
254 or subcultivation 2-3 times a week. […]
257 atmosphere, with medium change or subcultivation 2-3 times a week. In case starvation
258 conditions were used in combination with EGF stimulation, cells were kept in medium
260 stimulation (50ng/mL) for 10 minutes. […]
308 The next day the compounds (30µL of serial dilutions) were added in triplicates. The
310 nano molar minimum. Compounds (Stock: 10mM in 100% DMSO) were diluted in
311 medium. Cells were incubated at 37°C and 5% CO2 in a humidified atmosphere for 14
312 days. […]
315 wavelength was 544/15 nm, emission 590 nm. Data were fitted by iterative calculation
316 using a sigmoidal curve analysis program based on GraphPAD Prism with variable hill
319 MAPK pathway signaling (pERK, pAKT quantification)
320 MSD 96-well multispot assays for Phospho/Total ERK1/2 and Phospho(Ser473)/Total
321 AKT whole cell lysate kits (Meso Scale Discovery, Gaithersburg, MD, #K15107D,
322 #K15100D) were used according to the manufacturer’s instructions. Briefly, 50.000
323 cells were seeded per well and grown in 96 well plates. Cells were washed in ice cold
324 PBS and lysed in 50µL ice-cold lysis buffer supplemented with the provided protease
325 inhibitors. MSD plates were blocked for 1h, washed and 40µL of lysate was added in
326 duplicates to wells and incubated at room temperature for 3 hours while shaking at
327 400rpm. To measure the amount of phosphorylated AKT or ERK, the specific primary
328 antibody was added for 1 hour. After washing, read buffer was added and the plates
329 were measured on a SECTOR 6000 instrument (Meso Scale Discovery). Samples were
330 normalized to total ERK or total AKT values, respectively.
(§1) 332 RAS GTP detection (Ras G-LISA Activation assay):
(§2) 333 Ras-GTP levels were analyzed using a Ras G-LISA assay kit (Cytoskeleton Inc.,
(§3) 335 600.000 cells were seeded in 6 wells and grown to 70% confluence. Cells were washed
(§4) 337 provided protease inhibitor cocktail. Lysates were quickly frozen in liquid nitrogen
(§5) 338 and stored at -80°C until further usage. After normalizing protein concentration, 40µg
(§6) 339 of protein was added in duplicates to wells of the Ras G-LISA plate coated with Ras
340 GTP-binding protein and incubated at 4°C for 30 minutes while shaking at 400rpm. […]
(§7) 344 HRP detection reagent. Absorbance was measured by 490nm using an EnSpire
345 Multimode Reader (Perkin Elmer). Background was determined by a negative control […]

Assay [2] concerns NCI-H358 cells. Description: RAS GTP detection (Ras G-LISA activation assay). Format: cell-based, human. The following applies: for steady-state RAS GTP levels: high growth factor conditions; for formation of GTP-loaded KRAS / RAS GTP levels: starved 24 h low serum, 2 h compound, then EGF. The protocol:
When we incubated NCI-H358 cells with 50 µM 1 for 1 h, as previously observed, no change in GTP-KRAS was observed. In contrast, 20 µM ARS-1620 caused an 80% reduction of the GTP-bound RAS pool. When the 2 compounds were combined, only a 30% reduction of GTP-RAS was observed, which is in line with inhibiting the binding of GAPs with KRAS (Fig. 6D). […]
as §1, §2, §3, §4, §5, §6
340 GTP-binding protein and incubated at 4°C for 30 minutes while shaking at 400rpm.
341 After washing, antigen presenting buffer was added for 2 minutes. To measure bound
342 Ras GTP levels, wells were subsequently incubated with an anti-Ras primary antibody
343 (1:50) followed by a HRP-labeled secondary antibody (1:500) and finally by adding a
as §7
345 Multimode Reader (Perkin Elmer). Background was determined by a negative control
346 well and subtracted from all samples. […]

As to `Cn1cnc(Cn2ccc3ccc(CNCc4[nH]c5ccccc5c4[C@H]4NC(=O)c5ccc(O)cc54)cc32)c1` [Compound 1], the IC50 against GDP-KRASG12C::SOS1 is 450 nM. Further, the EC50 with NCI-H358 cells [1] (Homo sapiens, NCI-H358, high growth factor conditions, 2 h, read-out: EC50 inhibition of pERK relative to total ERK) was determined as 5800 nM. The pERK levels result with NCI-H358 cells [1] (starved 24 h low serum, 2 h compound, then EGF) was “dose-dependently reduced”. Moreover, the “reduction of GTP-RAS” value with NCI-H358 cells [2] (50 µM 1 combined with 20 µM ARS-1620) came out at 30%. In addition, the “change in GTP-KRAS” value in the assay on NCI-H358 cells [2] (50 µM 1 for 1 h) is recorded as “no change”. In the assay on NCI-H358 cells [2], the “steady-state RAS GTP levels” value is on record as “does not change” and the “formation of GTP-loaded KRAS / RAS GTP levels” value is recorded as “dose-dependent inhibition”.
`C=CC(=O)N1CCN(c2ncnc3c(F)c(-c4c(O)cccc4F)c(Cl)cc23)CC1` [ARS-1620, reference compound]: at GDP-KRASG12C::SOS1, the “activity on the GDP-dependent KRAS^G12C::SOS1 interaction” value was “displayed activity” and the IC50 turned out to be 590 nM. Besides, the “inhibition of pERK compared with 1” value with NCI-H358 cells [1] (high growth factor conditions, 2 h) is “similar, albeit more extended, inhibition of pERK”. The “reduction of the GTP-bound RAS pool” value in the assay on NCI-H358 cells [2] (20 µM ARS-1620) is recorded as 80%. In addition, in the assay on NCI-H358 cells [2], the “steady-state RAS GTP levels” value is listed as “strongly reduced” and the “formation of GTP-loaded KRAS / RAS GTP levels” value is recorded as “reduced the RAS GTP levels even below the DMSO control”.
As to `CN(C)Cc1[nH]c2ccccc2c1[C@H]1NC(=O)c2ccc(O)cc21` [Compound 18], the “decrease in phospho-ERK levels” value in the assay with NCI-H358 cells [1] (at 50 µM, 2 h after treatment) is recorded as “almost complete inhibition”.

These data come from paper PMC6689897, “Drugging an undruggable pocket on KRAS” (Proceedings of the National Academy of Sciences of the …, 2019).
